Test results from patent publication US20240245791A1, “METHODS AND COMPOSITIONS FOR LOCALIZATION OF GROWTH FACTORS” (Arizona Board of Regents on Behalf of the University of …, priority 2021, published 2024).
Where two headings read alike, the source gives them in different places.

Legend:
collagen IV sites = details: unconjugated VEGF; limited to the number of collagen IV sites available; cited from earlier work
collagen IV [1] = details: vs scrambled peptide control biotin-CBPi-QK; measured using Alexafluor 488 streptavidin
collagen IV [2] = experiment: binding assay to collagen IV of CBP-VEGF vs CBPi-VEGF, ELISA for VEGF121; details: vs scrambled peptide control CBPi-VEGF; measured using an ELISA for VEGF121
Description: The result is measured using an ELISA for VEGF121.

For VEGF, the “share of VEGF added to a scaffold that will bind” value (collagen IV sites) is given as 5%.

For “biotin-CQDSETRT-KLTWQELYQLKYKGI-COOH (SEQ ID NO: 16) [biotin-CBP-QK]”, the “binding to collagen IV” value (collagen IV [1]) was “significantly greater than the scrambled control at all concentrations”.

B1: CBP-VEGF: VEGF121 protein conjugated by click chemistry to collagen binding protein CBP (CQDSETRTFY, SEQ ID NO: 1) (conjugate)
chain: APMAEGGGQNHHEVVKFMDVYQRSYCHPIETLVDIFQEYPDEIEYIFKPSCVPLMRCGGCCNDEGLECVPTEESNITMQIMRIKPHQGQHIGEMSFLQHNKCECRPKKDRARQEKCDKPRR
peptide: CQDSETRTFY
In the case of B1, the “binding to collagen IV” value (collagen IV [2]) is reported as “significantly greater than the scrambled control at all concentrations”.
